In PubChem BioAssay AID588845 (Broad Institute, 2011):
Calls of active or inactive are those of the source. No rule for the calls is given here.

Experiments:
[1] = system: HMLE_shTWIST viability, CellTiter-Glo luminescence, 72 h; assay: HMLE_shTWIST CSC-like cell viability loss, confirmation, CellTiter-Glo luminescence, dry powder, set 2 (AID 588845)
[2] = as above; conditions: HMLE_shTWIST viability, CellTiter-Glo luminescence, 72 h; at 32 µM (top of the series)

| SMILES | AC50 [1] [µM] | viability fraction [2] |
| --- | --- | --- |
| Cc1csc(NC(=O)c2ccc(COc3cccc(F)c3)o2)n1 | 1.7 |  |
| CC(C)c1ccc(/C=C/C(=O)NC2=NCCS2)cc1 |  | 8.35% (inactive) |
| Cc1csc(NC(=O)c2ccc(COc3cccc(Cl)c3)o2)n1 | 4.3 |  |
| O=C(/C=C/c1ccc(Cl)c(Cl)c1)NC1=NCCS1 |  | 71.5% (inactive) |
| COc1ccc(/C=C/C(=O)NC2=NCCS2)c(OC)c1 |  | 58.2% (inactive) |
| CCc1ccc(/C=C/C(=O)NC2=NCCS2)cc1 | 11.7 |  |
| O=C(/C=C/c1ccc(-c2ccccc2)cc1)NC1=NCCS1 |  | 81.4% (inactive) |
| Cc1csc(NC(=O)c2ccc(COc3ccccc3F)o2)n1 | 0.13 |  |
| Cc1csc(NC(=O)c2ccc(COc3ccccc3)o2)n1 | 18.2 |  |
